{
  "source": "patent US20070134670A1",
  "about": "“Methods for prediction and prognosis of cancer, and monitoring cancer therapy” (BAYER PHARMACEUTICALS CORPORATION, priority 2003, published 2007)",
  "tested_on": "stanniocalcin expression in HMVEC cells",
  "test": "In vitro endothelial cell gene expression profiling (Affymetrix / TaqMan), HMVEC",
  "type": "cell-based, human",
  "conditions": "HMVECs; VEGF 10 ng/ml with heparin, 2 hours (FIG. 2A)",
  "source_text": "Pooled human microvascular endothelial cells (HMVECs) or human umbilical vein endothelial cells (HUVECs) were purchased as 2 T75 flasks (Clonetics, Cambrex Corporation, East Rutherford, N.J.). Cells were expanded in fill Clonetics growth media (EGF+5% FCS) on 2% gelatin coated flasks until sufficient numbers were obtained to perform the experiment (4 flasks each at less than 6 passages). Prior to the treatments, cells were washed 2× in PBS and starved overnight in basal media (EBM+0.2% endotoxin free BSA). The next day, media was removed and replaced with 25 ml of EBM+BSA. VEGFR2 inhibitor (drug) stock was made in DMSO and added to a final concentration of 100 nm in 0.1% DMSO. Heparin was used at 1.5 U/ml final concentration. VEGF final concentration was 10 ng/ml. Drug/DMSO was added for 30 minutes prior to adding VEGF/Heparin for 2 hours. […] RNA was subsequently isolated via Qiagen midi spin kits and quantitated by OD260/280 and gel visualization and/or Agilent bioanalyzer.\nSamples were organically extracted and ethanol precipitated. […] The resulting cRNA was put through RNeasy clean-up protocol, and then quantified using UV spectrophotometry. […]\nA master mix of the primers at 50 μM each was prepared. The samples were analyzed by standard PCR conditions on an ABI PRISM 7700 Sequence Detector using SYBR green probes. β-actin was used as controls for loading normalization.",
  "data": [
    {"substance": "VEGF", "values": [
      {"measurement": "human stanniocalcin-1 expression induced after treatment with VEGF", "value": "~20", "unit": "fold"}
    ]}
  ]
}
